ChEMBL document CHEMBL1201862, “PubChem BioAssay data set” (2004)
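In this assay, cells in 96-well plates receive the compound at five concentrations for 48 hours. Endpoints are linearly interpolated between the surrounding concentrations. GI50 is the concentration that inhibits growth by half.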 Active and inactive are the calls of the source. Cut-off read from the data, not from the text of the source: active = GI50 up to about 1.1 µM and inactive = higher.

Experiments:
Test in all cases: NCI tumour cell line growth inhibition, 48 h
UACC-257 = test system: UACC-257
SNB-75 = test system: SNB-75
SW-620 = test system: SW-620
CAKI-1 = test system: CAKI-1
EKVX = test system: EKVX
RXF 393 = test system: RXF 393
MDA-N = test system: MDA-N
M14 = test system: M14
PC-3 = test system: PC-3
SF-268 = test system: SF-268
SF-295 = test system: SF-295
HT-29 = test system: HT-29
T47D = test system: T47D
NCI-H460 = test system: NCI-H460
KM12 = test system: KM12
Malme-3M = test system: Malme-3M
Hs-578T = test system: Hs-578T
SK-OV-3 = test system: SK-OV-3
OVCAR-3 = test system: OVCAR-3
MDA-MB-435 = test system: MDA-MB-435
MDA-MB-231 = test system: MDA-MB-231
SK-MEL-28 = test system: SK-MEL-28
MCF7 = test system: MCF7
LOX IMVI = test system: LOX IMVI
U-251 = test system: U-251
HOP-62 = test system: HOP-62
OVCAR-8 = test system: OVCAR-8
SK-MEL-5 = test system: SK-MEL-5
A549 = test system: A549
HCT-116 = test system: HCT-116
SN12C = test system: SN12C
COLO 205 = test system: COLO 205
OVCAR-4 = test system: OVCAR-4
RPMI-8226 = test system: RPMI-8226
OVCAR-5 = test system: OVCAR-5
HCC 2998 = test system: HCC 2998
IGROV-1 = test system: IGROV-1
NCI-H226 = test system: NCI-H226
CCRF-CEM = test system: CCRF-CEM
HCT-15 = test system: HCT-15
NCI/ADR-RES = test system: NCI/ADR-RES
SR = test system: SR
TK-10 = test system: TK-10
A498 = test system: A498
UO-31 = test system: UO-31
ACHN = test system: ACHN
SNB-19 = test system: SNB-19
NCI-H522 = test system: NCI-H522
DU-145 = test system: DU-145
BT-549 = test system: BT-549
MOLT-4 = test system: MOLT-4
786-0 = test system: 786-0
K562 = test system: K562
SK-MEL-2 = test system: SK-MEL-2
UACC-62 = test system: UACC-62

## CN(C)CCNC1=Nc2ccccc2C(=S)N2CSCC12 (stereo not given)
UACC-257
  GI50: > 100 µM (inactive)
SNB-75
  GI50: > 100 µM (inactive)
SW-620
  GI50: > 100 µM (inactive)
CAKI-1
  GI50: > 100 µM (inactive)
EKVX
  GI50: > 100 µM (inactive)
RXF 393
  GI50: 59.3 µM (inactive)
MDA-N
  GI50: > 100 µM (inactive)
M14
  GI50: > 100 µM (inactive)
PC-3
  GI50: > 100 µM (inactive)
SF-268
  GI50: > 100 µM (inactive)
SF-295
  GI50: > 100 µM (inactive)
HT-29
  GI50: > 100 µM (inactive)
T47D
  GI50: > 100 µM (inactive)
NCI-H460
  GI50: > 100 µM (inactive)
KM12
  GI50: > 100 µM (inactive)
Malme-3M
  GI50: > 100 µM (inactive)
Hs-578T
  GI50: > 100 µM (inactive)
SK-OV-3
  GI50: > 100 µM (inactive)
OVCAR-3
  GI50: > 100 µM (inactive)
MDA-MB-435
  GI50: > 100 µM (inactive)
MDA-MB-231
  GI50: > 100 µM (inactive)
SK-MEL-28
  GI50: > 100 µM (inactive)
MCF7
  GI50: > 100 µM (inactive)
LOX IMVI
  GI50: > 100 µM (inactive)
U-251
  GI50: > 100 µM (inactive)
HOP-62
  GI50: > 100 µM (inactive)
OVCAR-8
  GI50: > 100 µM (inactive)
SK-MEL-5
  GI50: > 100 µM (inactive)
A549
  GI50: > 100 µM (inactive)
HCT-116
  GI50: > 100 µM (inactive)
SN12C
  GI50: > 100 µM (inactive)
COLO 205
  GI50: > 100 µM (inactive)
OVCAR-4
  GI50: > 100 µM (inactive)
RPMI-8226
  GI50: > 100 µM (inactive)
OVCAR-5
  GI50: > 100 µM (inactive)
HCC 2998
  GI50: > 100 µM (inactive)
IGROV-1
  GI50: > 100 µM (inactive)
NCI-H226
  GI50: > 100 µM (inactive)
CCRF-CEM
  GI50: > 100 µM (inactive)
HCT-15
  GI50: > 100 µM
NCI/ADR-RES
  GI50: > 100 µM (inactive)
SR
  GI50: > 100 µM (inactive)
TK-10
  GI50: > 100 µM (inactive)
A498
  GI50: > 100 µM (inactive)
UO-31
  GI50: 58.2 µM (inactive)
ACHN
  GI50: > 100 µM (inactive)
SNB-19
  GI50: > 100 µM (inactive)
NCI-H522
  GI50: > 100 µM (inactive)
DU-145
  GI50: 74.8 µM (inactive)
BT-549
  GI50: > 100 µM (inactive)
MOLT-4
  GI50: > 100 µM (inactive)
786-0
  GI50: > 100 µM (inactive)
K562
  GI50: > 100 µM (inactive)
SK-MEL-2
  GI50: > 100 µM (inactive)
UACC-62
  GI50: > 100 µM (inactive)
